What was measured:
[1] = tested on: healthy laboratory Balb-C mice; assay: Adverse effects of the cold ligand; assay type: in vivo; conditions: dose of 40 mg/kg
[2] = tested on: N30 (primary human stromal endometrial cells, FAP positive); assay: Cellular uptake and internalization; assay type: cell-based; conditions: 1 h, 37 °C
Method: The ^99mTc-iFAP uptake and internalization by N30 (FAP +) and fibroblast (FAP −) cells were determined by using 4 × 10^5 cells/500 µL of PBS in test tubes (n = 6). Both cells lines were incubated for 1 h at 37 °C with 10 µL of ^99mTc-iFAP (37 kBq, 0.4 nmol iFAP). After incubation, three washes with 500 µL of PBS were performed by centrifugation (700 g/5 min). By using a crystal scintillation (NaI(Tl)) well-type detector (MNL Inc., Littleton, CO, USA), the radioactivity in the cell pellet was evaluated. A standard volume with the initial activity was used to represent 100%, and the cell uptake activity was assessed with regard to this value. For the evaluation of internalization, the cell pellets were treated at 37 °C for 5 min with 500 µL of an acid glycine solution (0.1 M glycine, pH adjusted to 2.8 with HCl), and centrifuged (700 g/5 min). The cell pellet was incubated with 1 M NaOH for 5 min and centrifuged (700 g/5 min). The radioactivity of the supernatant was calculated as the percentage of internalization with regard to the initial activity of the standard volume as mentioned above.

[3] = Human serum stability and protein binding (size-exclusion radio-HPLC); assay type: in vitro ADME
Method: The ^99mTc-iFAP (37 MBq, 100 µL, 14 nmol) was incubated at 37 °C with 500 µL of human serum (IST-909c certified human serum sample, Sigma-Aldrich) and diluted in 0.5 mL of a 0.9% NaCl solution. Twenty microliters of the mixture were sampled at 30 min, 3 and 24 h for size-exclusion radio-HPLC analysis using a ProteinPak 300SW Waters column and 0.01M PBS as the mobile phase (1 mL/min). The percentage of recovery (quantification of the radioactivity recovered from the HPLC column) was determined by injecting 20 µL of the ^99mTc-iFAP sample into the HPLC system and 20 µL into a 50 mL volumetric flask, which was filled with 0.01 M PBS (flask 1). The column was eluted with 0.01 M PBS for 50 min (1 mL/min) and the effluent was collected in a 50 mL volumetric flask (flask 2). Aliquots of 1 mL from both flask 1 and flask 2 were measured on an HPGe detector (ORTEC). The percentage of recovery was calculated by dividing the counts in flask 2 by the counts in flask 1 then multiplied by 100.

[4] = tested on: mice with induced Hep-G2 tumors; assay: Biodistribution and biokinetic models in tumor-bearing mice; assay type: in vivo; conditions: for Biodistribution, Blood / Biodistribution, Bone / Biodistribution, Heart / Biodistribution, Tumor / Biodistribution, Intestine / Biodistribution, Kidneys / Biodistribution, Liver / Biodistribution, Lung / Biodistribution, Muscle (left thigh) / Biodistribution, Pancreas / Biodistribution, Spleen / Biodistribution, Stomach: i.v.
Method: The biodistribution studies in Balb-c male mice were carried out in agreement with Official Mexican Norm 062-ZOO-1999. Hep-G2 tumors were induced in mice (n = 15) by subcutaneous injection (right thigh; positive control) of 1 × 10^6 cells suspended in 0.2 mL of phosphate-buffered saline. Killed Klebsiella pneumoniae bacteria (heated for 2 h at […] and verified for absence of growth after culturing), aseptically suspended in 0.2 mL of PBS (1 × 10^6 bacteria), were subcutaneously administered into the left thigh of mice in order to induce inflammation (negative control). After the tumor was visible, ^99mTc-iFAP (50 µL, 18 MBq, 7 nmol of iFAP) was administered intravenously into the tail of each mouse. Three mice were selected for micro-SPECT/CT imaging, whereas the rest were sacrificed to be used in the biodistribution study. The times of evaluation were 15 min, 30 min, 2 h and 24 h. After the mice were sacrificed, the blood and main organs were removed, weighted and their radioactivity measured using a […] detector, in order to calculate the percentage of the injected dose per gram of tissue (%ID/g) by using an initial standard volume (100% of the initial injected activity). Biokinetic models of the four main target tissues/organs (blood, tumor, liver and kidneys) were obtained by fitting ^99mTc-iFAP time-activity curves to functions with two or three exponential terms Equation (2):(2) A(t)=Ae^−at+Be^−bt+Ce^−ct

[5] = Radiochemical stability of the radiopharmaceutical after labeling (radio-HPLC/ITLC-SG); assay type: physicochemical; conditions: 24 h after labeling
Method: For radiolabeling, the lyophilized formulation was reconstituted with 1 mL of a 0.2 M phosphate buffer and 1 mL of ^99mTcO4Na (740–1110MBq). The reaction was incubated in a block heater for 15 min at 92 °C. The radiochemical purity was 98% as determined by radio-HPLC (Discovery C18; 5 μm particle size; L × I.D. 25 cm × 4.6 mm; linear gradient: 0.1% TFA/water (A) and 0.1% TFA/acetonitrile (B) flow rate of 1 mL/min. A-100% for 3 min, changed to A-50% over 10 min and maintained for 10 min, changed A-30% over 3 min and returned to A-100% over 4 min).
ITLC-SG (instant thin layer chromatography-silica gel) was also carried out for the assessment of ^99mTc-iFAP radiochemical purity. Three mobile phases were used, the 2-butanone phase was employed for the identification of free ^99mTcO4^− (Rf = 1), where ^99mTc-iFAP, ^99mTc-EDDA/tricine and ^99mTc-colloid remained in the origin (Rf = 0); 0.1 M sodium citrate (pH 5) identified free ^99mTcO4 (Rf = 1) and ^99mTc-EDDA/tricine coligands (Rf = 1), where ^99mTc-iFAP and ^99mTc-colloid remained in the origin (Rf = 0); finally, the third phase was used for the determination of ^99mTc-colloid (Rf = 0) and consisted of ammonium acetate-methanol (1:1 v/v) ( ^99mTcO4^−, ^99mTc-iFAP and ^99mTc-EDDA run with the solvent front; Rf = 1).

[6] = tested on: tumor microenvironment of different types of cancer; assay: Preliminary clinical SPECT/CT imaging studies; assay type: in vivo; conditions: preliminary clinical studies in progress, breast, lung, colorectal, gliomas, cervical cancer
[7] = tested on: nude mice with induced Hep-G2 lesions; assay: Micro-SPECT/CT imaging and tumor SUV; conditions: for tumor SUVmax, the mouse shown in Figure 7: one nude mouse; for tumor SUVmax, the mouse shown in Figure 7 / tumor SUVmax: right thigh; for tumor SUVmax: Hep-G2 tumor
Method: Hep-G2 tumors were induced in mice (n = 15) by subcutaneous injection (right thigh; positive control) of 1 × 10^6 cells suspended in 0.2 mL of phosphate-buffered saline. Killed Klebsiella pneumoniae bacteria (heated for 2 h at 1000 °C and verified for absence of growth after culturing), aseptically suspended in 0.2 mL of PBS (1 × 10^6 bacteria), were subcutaneously administered into the left thigh of mice in order to induce inflammation (negative control). After the tumor was visible, ^99mTc-iFAP (50 µL, 18 MBq, 7 nmol of iFAP) was administered intravenously into the tail of each mouse. Three mice were selected for micro-SPECT/CT imaging, whereas the rest were sacrificed to be used in the biodistribution study. […] After the mice were sacrificed, the blood and main organs were removed, weighted and their radioactivity measured using a Na(Tl) detector, in order to calculate the percentage of the injected dose per gram of tissue (%ID/g) by using an initial standard volume (100% of the initial injected activity). Biokinetic models of the four main target tissues/organs (blood, tumor, liver and kidneys) were obtained by fitting ^99mTc-iFAP time-activity curves to functions with two or three exponential terms Equation (2):(2) A(t)=Ae^−at+Be^−bt+Ce^−ct

Molecule: C[C@@H](NC(=O)c1ccc(NN)nc1)C(=O)N1CCC[C@H]1B(O)O [iFAP, ((R)-1-((6-hydrazinylnicotinoyl)-D-alanyl)pyrrolidin-2-yl) boronic acid]
- adverse effects [1]: did not show adverse effects

Molecule: ^99mTc-((R)-1-((6-hydrazinylnicotinoyl)-D-alanyl) pyrrolidin-2-yl) boronic acid [^99mTc-iFAP]
- internalization rate in N30 cells [2]: rather low
- cellular uptake in N30 compared to fibroblasts ([2]; human fibroblasts FAP negative control, p < 0.05, n = 6): increased
- stability in fresh human serum ([3]; 30 min, 3 h and 24 h, 37 °C): remained stable
- 99mTc-colloid as activity retained in the column ([3]; from percentage of recovered activity, size-exclusion HPLC): 0.2%
- transchelation of 99mTc to cysteine ([3]; human serum, 37 °C): does not occur
- serum protein binding ([3]; human serum, 37 °C, 30 min): 0.3 ± 0.1%
- serum protein binding ([3]; human serum, 37 °C, 3 h): 0.9 ± 0.2%
- radiochemical stability in human serum ([3]; human serum, 37 °C, 24 h): > 95%
- serum protein binding ([3]; human serum, 37 °C, 24 h): 2.1 ± 0.3%
- Biodistribution, Blood ([4]; 15 min): 2.07 ± 0.63 %ID/g
- Biodistribution, Blood ([4]; 30 min): 1.02 ± 0.32 %ID/g
- Biodistribution, Blood ([4]; 2 h): 0.33 ± 0.05 %ID/g
- Biodistribution, Blood ([4]; 24 h): 0.01 ± 0.01 %ID/g
- Biodistribution, Bone ([4]; 15 min): 0.20 ± 0.09 %ID/g
- Biodistribution, Bone ([4]; 30 min): 0.14 ± 0.06 %ID/g
- Biodistribution, Bone ([4]; 2 h): 0.13 ± 0.02 %ID/g
- Biodistribution, Heart ([4]; 15 min): 1.75 ± 0.08 %ID/g
- Biodistribution, Heart ([4]; 30 min): 0.88 ± 0.23 %ID/g
- Biodistribution, Heart ([4]; 2 h): 0.19 ± 0.03 %ID/g
- Biodistribution, Tumor ([4]; Hep-G2 tumor, 15 min): 9.87 ± 1.94 %ID/g
- Biodistribution, Tumor ([4]; Hep-G2 tumor, 30 min): 7.05 ± 1.13 %ID/g
- Biodistribution, Tumor ([4]; Hep-G2 tumor, 2 h): 5.18 ± 0.82 %ID/g
- Biodistribution, Tumor ([4]; Hep-G2 tumor, 24 h): 2.37 ± 0.26 %ID/g
- tumor fast elimination constant (λeff) ([4]; Hep-G2 tumor, biokinetic model): 0.41 h⁻¹
- tumor slow elimination constant (λeff) ([4]; Hep-G2 tumor, biokinetic model): 0.12 h⁻¹
- Biodistribution, Intestine ([4]; 15 min): 1.42 ± 0.74 %ID/g
- Biodistribution, Intestine ([4]; 30 min): 0.93 ± 0.14 %ID/g
- Biodistribution, Intestine ([4]; 2 h): 0.22 ± 0.10 %ID/g
- Biodistribution, Kidneys ([4]; 15 min): 13.85 ± 2.27 %ID/g
- Biodistribution, Kidneys ([4]; 30 min): 11.18 ± 1.54 %ID/g
- Biodistribution, Kidneys ([4]; 2 h): 7.46 ± 1.02 %ID/g
- Biodistribution, Kidneys ([4]; 24 h): 1.89 ± 0.53 %ID/g
- Biodistribution, Liver ([4]; 15 min): 2.78 ± 0.42 %ID/g
- Biodistribution, Liver ([4]; 30 min): 2.14 ± 0.51 %ID/g
- Biodistribution, Liver ([4]; 2 h): 1.05 ± 0.29 %ID/g
- Biodistribution, Liver ([4]; 24 h): 0.05 ± 0.03 %ID/g
- Biodistribution, Lung ([4]; 15 min): 1.11 ± 0.51 %ID/g
- Biodistribution, Lung ([4]; 30 min): 0.65 ± 0.19 %ID/g
- Biodistribution, Lung ([4]; 2 h): 0.02 ± 0.01 %ID/g
- Biodistribution, Muscle (left thigh) ([4]; 15 min): 0.39 ± 0.15 %ID/g
- Biodistribution, Muscle (left thigh) ([4]; 30 min): 0.31 ± 0.11 %ID/g
- Biodistribution, Muscle (left thigh) ([4]; 2 h): 0.18 ± 0.06 %ID/g
- Biodistribution, Pancreas ([4]; 15 min): 0.64 ± 0.10 %ID/g
- Biodistribution, Pancreas ([4]; 30 min): 0.31 ± 0.12 %ID/g
- Biodistribution, Pancreas ([4]; 2 h): 0.12 ± 0.04 %ID/g
- Biodistribution, Spleen ([4]; 15 min): 1.07 ± 0.17 %ID/g
- Biodistribution, Spleen ([4]; 30 min): 0.82 ± 0.04 %ID/g
- Biodistribution, Spleen ([4]; 2 h): 0.15 ± 0.05 %ID/g
- Biodistribution, Stomach ([4]; 15 min): 0.71 ± 0.08 %ID/g
- Biodistribution, Stomach ([4]; 30 min): 0.39 ± 0.12 %ID/g
- Biodistribution, Stomach ([4]; 2 h): 0.25 ± 0.03 %ID/g
- fraction of radiotracer eliminated from blood, fast phase ([4]; blood, biokinetic model, fast): 88.6%
- fraction of radiotracer eliminated from blood, slow phase ([4]; blood, biokinetic model, slow): 11.4%
- blood half-life (slow) ([4]; blood, t1/2 = ln2/0.27): 154 min
- blood half-life (fast) ([4]; blood, t1/2 = ln2/2.93): 14.4 min
- kidney half-life, second phase ([4]; kidneys, t1/2 = ln2/1.54): 27 min
- kidney half-life (fast) ([4]; kidneys, t1/2 = ln2/2.71): 15.6 min
- fraction of activity eliminated from kidneys, fast phase ([4]; kidneys, triexponential model, fast): 49.4%
- fraction of activity eliminated from kidneys, second phase ([4]; kidneys, triexponential model, second phase): 6.3%
- fraction of activity eliminated from kidneys, slow phase ([4]; kidneys, triexponential model, slow): 44.3%
- radiochemical purity after 24 h of labeling [5]: greater than 97%
- sensitivity to detect the tumor microenvironment [6]: high sensitivity
- tumor SUVmax, the mouse shown in Figure 7 ([7]; 30 min): 5.6
- tumor SUVmax ([7]; 30 min after administration): 5.0 ± 1.2
- tumor SUVmax, the mouse shown in Figure 7 ([7]; 24 h): 2.4
- tumor SUVmax ([7]; 24 h after administration): 2.7 ± 0.6
- radiotracer uptake in left thigh with inflammation induced by killed bacteria (negative control) ([7]; micro-SPECT/CT, left thigh): no radiotracer uptake was observed
